Assay results: patent US20140057895A1, “INDAZOLE- AND PYRROLOPYRIDINE-DERIVATIVE AND PHARMACEUTICAL USE THEREOF” (priority 2011, published 2014)
Counter-ions that a name gives are not always drawn.

Target: T1, 5-HT4 receptor (Cavia porcellus, UniProt O70528)
T1 construct: striatum was isolated which was cryopreserved at −80° C. until use; from tissue; host or cells: guinea pig (Slc-Hartley) striatum membranes
Assay: Test Example 3: Guinea pig 5-HT4 receptor binding assay, [3H]-GR113808, striatum membranes (Table 98)
Conditions: Guinea pig 5-HT4 receptor binding assay, [3H]-GR113808, striatum membranes; mean value of each group; read-out: IC50
Procedure: The guinea pig 5-HT4 receptor binding assay and preparations of receptor membrane preparations herein were carried out according to a method of Grossman et al. [see, British J. Pharmacol., (1993) 109, 618].
Slc-Hartley guinea pigs (body weight 300 g to 400 g) were decapitated to remove brain rapidly, and striatum was isolated which was cryopreserved at −80° C. until use. To the obtained tissues were added fifteen fold of Hepes buffer (50 mM, pH 7.4, 4° C.), and the mixture was homogenized by Teflon (trademark) homogenizer and centrifuged at 48,000×g (4° C.) for 15 minutes. To the resulting precipitate was added Hepes buffer (1 ml) to 30 mg by wet weight of tissues, and the mixture was suspended to give receptor membrane preparations.
To an assay tube were added 0.1 nM [^3H]-GR113808 {chemical name: [1-[2-(methylsulfonylamino) ethyl]-4-piperidinyl]methyl 1-methylindole-3-carboxylate}, receptor membrane preparations, and Hepes buffer (50 mM, pH 7.4, 4° C., 1 ml) containing test compounds or 30 μM serotonin; and the mixture was incubated at 37° C. for 30 minutes. On quenching the reaction, the mixture was rapidly filtered on whatman GF/B filter, which was presoaked in 0.1% polyethyleneimine for 1 hour, by using Brandel cell Harvester, and washed with ice-cooled 50 mM Tris-HCl (pH 7.7, 4 ml) three times. To the filter after filtration was added a liquid scintillator (Ecoscint), and then a radioactivity was determined by a liquid scintillation counter.
50% Inhibition concentrations (IC50) were determined from inhibition rates of test compounds to specific bindings which were obtained by subtracting nonspecific bindings from total binding amounts of [^3H]-GR113808. […]

T1 sequence (O70528 whole entry): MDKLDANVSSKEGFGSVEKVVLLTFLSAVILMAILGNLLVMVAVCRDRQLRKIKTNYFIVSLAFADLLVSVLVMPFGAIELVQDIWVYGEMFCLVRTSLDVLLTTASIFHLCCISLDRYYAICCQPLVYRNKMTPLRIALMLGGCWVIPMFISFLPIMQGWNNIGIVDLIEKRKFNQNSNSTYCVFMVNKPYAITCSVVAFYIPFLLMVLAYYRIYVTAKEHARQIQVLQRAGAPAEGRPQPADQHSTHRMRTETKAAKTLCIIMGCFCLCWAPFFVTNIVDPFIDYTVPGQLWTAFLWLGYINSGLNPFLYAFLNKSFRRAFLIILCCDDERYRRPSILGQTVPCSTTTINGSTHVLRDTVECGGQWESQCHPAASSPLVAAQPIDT

Compound	IC50
CCCCN1CCC(c2cnc(-n3nc(C(C)C)c4cccc(F)c43)s2)CC1 [Example 563, 1-[5-(1-butylpiperidin-4-yl)-1,3-thiazol-2-yl]-7-fluoro-3-(propan-2-yl)-1H-indazole]	222 nM
CCCCN1CCC(c2ncc(-n3nc(C(C)C)c4cccc(F)c43)s2)CC1 [Example 564, 1-[2-(1-butylpiperidin-4-yl)-1,3-thiazol-5-yl]-7-fluoro-3-(propan-2-yl)-1H-indazole]	653 nM
CC(=O)N1CCC(N2CCC(c3nc(-n4nc(C(C)C)c5cccc(C)c54)no3)CC2)CC1 [Example 413, 1-(4-{3-[7-methyl-3-(propan-2-yl)-1H-indazol-1-yl]-1,2,4-oxadiazol-5-yl}-1,4′-bipiperidin-1′-yl)ethanone]	< 20 nM
COc1cccc2c(C(C)C)nn(-c3noc(C4CCN(C5CCOCC5)CC4)n3)c12 [Example 441, 7-methoxy-3-(propan-2-yl)-1-{5-[1-(tetrahydro-2H-pyran-4-yl)piperidin-4-yl]-1,2,4-oxadiazol-3-yl}-1H-indazole]	78.2 nM
CC(C)c1nn(-c2noc(C3CCN(C4CCN(C(=O)C(=O)O)CC4)CC3)n2)c2c(F)cccc12 [Example 557, potassium (4-{3-[7-fluoro-3-(propan-2-yl)-1H-indazol-1-yl]-1,2,4-oxadiazol-5-yl}-1,4′-bipiperidin-1′-yl)(oxo)acetate]	127 nM
CC(=O)N1CCC(N2CCC(c3nc(-n4nc(C(C)C)c5ccc(O)c(F)c54)no3)CC2)CC1 [Example 554, 1-(4-{3-[7-fluoro-6-hydroxy-3-(propan-2-yl)-1H-indazol-1-yl]-1,2,4-oxadiazol-5-yl}-1,4′-bipiperidin-1′-yl)ethanone]	190 nM
CC(C)c1nn(-c2noc(C3CCN(C4CCOCC4)C3)n2)c2c(F)cccc12 (stereo not drawn) [Example 456, 7-fluoro-3-(propan-2-yl)-1-{5-[1-(tetrahydro-2H-pyran-4-yl)pyrrolidin-3-yl]-1,2,4-oxadiazol-3-yl}-1H-indazole]	< 20 nM
COc1cccc2c(C(C)C)nn(-c3noc(C4CCN(C5CCC5)CC4)n3)c12 [Example 440, 1-[5-(1-cyclobutylpiperidin-4-yl)-1,2,4-oxadiazol-3-yl]-7-methoxy-3-(propan-2-yl)-1H-indazole]	104 nM
CCCCN1CCC(c2cnc(-n3nc(C(C)C)c4cccc(F)c43)[nH]2)CC1 [Example 562, 1-[5-(1-butylpiperidin-4-yl)-1H-imidazol-2-yl]-7-fluoro-3-(propan-2-yl)-1H-indazole]	478 nM
CC(C)c1nn(-c2noc(C3CCN(C4CCOCC4)CC3)n2)c2c(F)c(F)ccc12 [Example 454, 6,7-difluoro-3-(propan-2-yl)-1-{5-[1-(tetrahydro-2H-pyran-4-yl)piperidin-4-yl]-1,2,4-oxadiazol-3-yl}-1H-indazole trifluoroacetate]	< 20 nM
CC(C)c1nn(-c2noc(C3CCN(C4CCOCC4)CC3)n2)c2cccc(Cl)c12 [Example 422, 4-chloro-3-(propan-2-yl)-1-{5-[1-(tetrahydro-2H-pyran-4-yl)piperidin-4-yl]-1,2,4-oxadiazol-3-yl}-1H-indazole]	55 nM
CC(=O)N1CCC(N2CCC(Cc3nc(-n4nc(C(C)C)c5cccc(F)c54)no3)CC2)CC1 [Example 417, 1-[4-({3-[7-fluoro-3-(propan-2-yl)-1H-indazol-1-yl]-1,2,4-oxadiazol-5-yl}methyl)-1,4′-bipiperidin-1′-yl]ethanone]	36 nM
CC(=O)N1CCC(N2CCC(c3nc(-n4nc(C(C)C)c5c(O)ccc(F)c54)no3)CC2)CC1 [Example 555, 1-(4-{3-[7-fluoro-4-hydroxy-3-(propan-2-yl)-1H-indazol-1-yl]-1,2,4-oxadiazol-5-yl}-1,4′-bipiperidin-1′-yl)ethanone]	24.9 nM
CC(C)c1nn(-c2noc(C3CCN(C4CCCC4)CC3)n2)c2c(F)c(F)ccc12 [Example 452, 1-[5-(1-cyclopentylpiperidin-4-yl)-1,2,4-oxadiazol-3-yl]-6,7-difluoro-3-(propan-2-yl)-1H-indazole trifluoroacetate]	< 20 nM
CC(=O)N1CCC(N2CCC(c3nc(-n4nc(C(C)C)c5c(Cl)cccc54)no3)CC2)CC1 [Example 407, 1-(4-{3-[4-chloro-3-(propan-2-yl)-1H-indazol-1-yl]-1,2,4-oxadiazol-5-yl}-1,4′-bipiperidin-1′-yl)ethanone]	101 nM
COC(=O)CCCN1CCC(c2nc(-n3nc(C(C)C)c4cccc(F)c43)no2)CC1 [Example 397, methyl 4-(4-{3-[7-fluoro-3-(propan-2-yl)-1H-indazol-1-yl]-1,2,4-oxadiazol-5-yl}piperidin-1-yl)butanoate]	< 20 nM
CC(=O)N1CCC(N2CCC(c3nc(-n4nc(C(C)C)c5cccc(F)c54)no3)C2)CC1 (stereo not drawn) [Example 415, 1-[4-(3-{3-[7-fluoro-3-(propan-2-yl)-1H-indazol-1-yl]-1,2,4-oxadiazol-5-yl}pyrrolidin-1-yl)piperidin-1-yl]ethanone]	< 20 nM
CC(C)(C)c1nn(-c2noc(C3CCN(C4CCN(C(=O)CO)CC4)CC3)n2)c2ccccc12 [Example 522, 1-{4-[3-(3-tert-butyl-1H-indazol-1-yl)-1,2,4-oxadiazol-5-yl]-1,4′-bipiperidin-1′-yl}-2-hydroxyethanone]	222 nM
CC(C)c1nn(-c2noc(C3CCN(C4CCC4)CC3)n2)c2cccc(Cl)c12 [Example 421, 4-chloro-1-[5-(1-cyclobutylpiperidin-4-yl)-1,2,4-oxadiazol-3-yl]-3-(propan-2-yl)-1H-indazole]	129 nM
CC(=O)N1CCC(N2CCC(c3nc(-n4nc(C(C)C)c5ccc(Cl)cc54)no3)CC2)CC1 [Example 412, 1-(4-{3-[6-chloro-3-(propan-2-yl)-1H-indazol-1-yl]-1,2,4-oxadiazol-5-yl}-1,4′-bipiperidin-1′-yl)ethanone]	140 nM
CCc1nn(-c2noc(C3CCN(C4CCC4)CC3)n2)c2cc(C)ccc12 [Example 434, 1-[5-(1-cyclobutylpiperidin-4-yl)-1,2,4-oxadiazol-3-yl]-3-ethyl-6-methyl-1H-indazole trifluoroacetate]	20.8 nM
Cc1ccc2c(c1)c(C(C)C)nn2-c1noc(C2CCN(C3CCC3)CC2)n1 [Example 427, 1-[5-(1-cyclobutylpiperidin-4-yl)-1,2,4-oxadiazol-3-yl]-5-methyl-3-(propan-2-yl}-1H-indazole]	339 nM
5-methyl-3-(propan-2-yl)-1-{5-[1-(tetrahydro-2H-pyran-4-yl)piperidin-5-yl]-1,2,4-oxadiazol-3-yl}-1H-indazole [Example 428]	248 nM
CC(=O)N1CCC(N2CCC(c3nc(-n4nc(C(F)(F)F)c5cccc(F)c54)no3)CC2)CC1 [Example 406, 1-(4-{3-[7-fluoro-3-(trifluoromethyl)-1H-indazol-1-yl]-1,2,4-oxadiazol-5-yl}-1,4′-bipiperidin-1′-yl)ethanone]	68.7 nM
CCc1nn(-c2noc(C3CCN(CC4CCN(C(=O)OC)CC4)CC3)n2)c2c(F)c(F)ccc12 [Example 476, methyl 4-({4-[3-(3-ethyl-6,7-difluoro-1H-indazol-1-yl)-1,2,4-oxadiazol-5-yl]piperidin-1-yl}methyl)piperidin-1-carboxylate trifluoroacetate]	< 20 nM
CC(C)c1nn(-c2noc(C3CCN(C4CCC4)CC3)n2)c2cc(Cl)ccc12 [Example 431, 6-chloro-1-[5-(1-cyclobutylpiperidin-4-yl)-1,2,4-oxadiazol-3-yl]-3-(propan-2-yl)-1H-indazole]	130 nM
CC(=O)N1CCC(CN2CCC(c3nc(-n4nc(C(C)C)c5ccc(F)c(F)c54)no3)CC2)CC1 [Example 480, 1-{4-[(4-{3-[6,7-difluoro-3-(propan-2-yl)-1H-indazol-1-yl]-1,2,4-oxadiazol-5-yl}piperidin-1-yl)methyl]piperidin-1-yl}ethanone trifluoroacetate]	27.5 nM
C=C(C)c1nn(-c2noc(C3CCN(C4CCN(C(=O)CO)CC4)CC3)n2)c2c(F)cccc12 [Example 521, 1-(4-{3-[7-fluoro-3-(prop-1-en-2-yl)-1H-indazol-1-yl]-1,2,4-oxadiazol-5-yl}-1,4′-bipiperidin-1'-yl)-2-hydroxyethanone hydrochloride]	93.7 nM
CC(C)c1nn(-c2noc(C3CCN(C4CCC(F)(F)CC4)CC3)n2)c2c(F)cccc12 [Example 442, 1-{5-[1-(4,4-difluorocyclohexyl)piperidin-4-yl]-1,2,4-oxadiazol-3-yl}-7-fluoro-3-(propan-2-yl)-1H-indazole]	< 20 nM
COCC(=O)N1CCC(N2CCC(c3nc(-n4nc(C(C)C)c5ccc(F)c(F)c54)no3)CC2)CC1 [Example 465, 1-(4-{3-[6,7-difluoro-3-(propan-2-yl)-1H-indazol-1-yl]-1,2,4-oxadiazol-5-yl}-1,4′-bipiperidin-1′-yl)-2-methoxyethanone trifluoroacetate]	< 20 nM
